Experimental findings from PMC3926237, “Identification of Levothyroxine Antichagasic Activity through Computer-Aided Drug Repurposing” (The Scientific World Journal, 2014) are described below.

One may read the IC50 as the concentration that gives 50% inhibition.

The structures appear in SMILES notation.

The assay concerns the target cruzipain (Cz) (Trypanosoma cruzi, UniProt P25779). Kind of assay: chromogenic Bz-Pro-Phe-Arg-pNA protease assay on partially purified native cruzipain, […] nm. It is filed as biochemical.

Sequence of cruzipain (Cz) (P25779 123-467): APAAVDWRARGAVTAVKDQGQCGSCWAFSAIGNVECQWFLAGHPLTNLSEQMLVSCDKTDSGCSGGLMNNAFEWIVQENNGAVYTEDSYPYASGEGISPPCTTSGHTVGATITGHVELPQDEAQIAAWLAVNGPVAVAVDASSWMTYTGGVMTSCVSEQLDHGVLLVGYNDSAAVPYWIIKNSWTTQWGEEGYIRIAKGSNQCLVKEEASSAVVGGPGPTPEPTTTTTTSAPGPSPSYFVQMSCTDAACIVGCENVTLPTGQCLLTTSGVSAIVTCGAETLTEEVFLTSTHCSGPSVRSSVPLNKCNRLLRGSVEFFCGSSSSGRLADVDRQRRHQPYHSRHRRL

Compound `N[C@@H](Cc1cc(I)c(Oc2cc(I)c(O)c(I)c2)c(I)c1)C(=O)O` [levothyroxine] had an IC50 of 38.4 ± 6.82 µM.
